Consider 44 molecules from ChEMBL document CHEMBL1124283, “1,4-Dihydropyridine antagonist activities at the calcium channel: a quantitative structure-activity relationship approach” (J Med Chem, 1988).

Molecules are shown by their SMILES.

The species named for one assay is Cavia porcellus. The assay can be described thus: Effective concentration required to produce mechanical response determined in muscle strips of guinea pig. The assay is classed as functional. As to conditions: Muscle tissue, read-out: Log 1/EC50 (converted).
Assay [1] in a line: Compound was tested for its antagonist activity against calcium channel. The assay is classed as functional, Homo sapiens.

Turning to `COC(=O)C1=C(C)NC(C)=C(C(=O)OC)C1c1ccc(N(C)C)cc1`, the EC50 in the assay filed under Cavia porcellus was 100 µM.

In the case of `COC(=O)C1=C(C)NC(C)=C(C(=O)OC)C1c1ccccc1`, the “Log 1/IC50” value in assay [1] is listed as 7.85. Moreover, the EC50 in the assay filed under Cavia porcellus was 0.0282 µM.

For `COC(=O)C1=C(C)N=C(C)/C(=C(\O)OC)C1c1cccc(C)c1` (stereo not drawn), the “Log 1/IC50” value in assay [1] is reported as 7.28. In addition, in the assay filed under Cavia porcellus, the EC50 is 0.11 µM.

For `COC(=O)C1=C(C)N=C(C)/C(=C(\O)OC)C1c1c(F)c(F)c(F)c(F)c1F` (stereo not drawn), the “Log 1/IC50” value in assay [1] turned out to be 10.37. Moreover, the EC50 in the assay listed under Cavia porcellus is 0.00437 µM.

For `COC(=O)C1=C(C)N=C(C)/C(=C(\O)OC)C1c1cccc(C#N)c1` (stereo not drawn), in assay [1], the “Log 1/IC50” value came out at 8.68. In addition, in the assay listed under Cavia porcellus, the EC50 was 0.0347 µM.

Take `COC(=O)C1=C(C)N=C(C)/C(=C(\O)OC)C1c1ccc(C)cc1` (stereo not drawn): the “Log 1/IC50” value in assay [1] is on record as 7.18.

As for `COC(=O)C1=C(C)N=C(C)/C(=C(/O)OC)C1c1c(F)cccc1Cl` (stereo not drawn), in assay [1], the “Log 1/IC50” value worked out at 8.37. Also, in the assay filed under Cavia porcellus, the EC50 was 0.00759 µM.

As to `COC(=O)C1=C(C)N=C(C)/C(=C(\O)OC)C1c1cccc(F)c1` (stereo not drawn), the “Log 1/IC50” value in assay [1] was 8.49. The EC50 in the assay listed under Cavia porcellus is 0.0209 µM.

For the molecule `COC(=O)C1=C(C)N=C(C)/C(=C(\O)OC)C1c1ccccc1I` (stereo not drawn), the “Log 1/IC50” value in assay [1] was found to be 10.8. Also, in the assay listed under Cavia porcellus, the EC50 was 0.0468 µM.

With `COC(=O)C1=C(C)N=C(C)/C(=C(\O)OC)C1c1ccccc1C#N` (stereo not drawn), the “Log 1/IC50” value in assay [1] amounted to 9.18. Moreover, in the assay filed under Cavia porcellus, the EC50 is 0.0158 µM.

On to `COC(=O)C1=C(C)N=C(C)/C(=C(\O)OC)C1c1cc(Cl)cc(Cl)c1` (stereo not drawn), for which, in the assay filed under Cavia porcellus, the EC50 was 0.0933 µM.

For `COC(=O)C1=C(C)N=C(C)/C(=C(\O)OC)C1c1cccc(N(C)C)c1` (stereo not drawn), the EC50 in the assay filed under Cavia porcellus was 0.891 µM.

As for `COC(=O)C1=C(C)N=C(C)/C(=C(\O)OC)C1c1cccc(OC)c1` (stereo not drawn), the “Log 1/IC50” value in assay [1] amounted to 7.27. Also, the EC50 in the assay listed under Cavia porcellus is 0.191 µM.

Take `COC(=O)C1=C(C)N=C(C)/C(=C(\O)OC)C1c1cccc(OC(=O)c2ccccc2)c1` (stereo not drawn): the EC50 in the assay listed under Cavia porcellus was 6.31 µM.

Take `COC(=O)C1=C(C)N=C(C)/C(=C(\O)OC)C1c1cccc([N+](C)(C)C)c1` (stereo not drawn): the “Log 1/IC50” value in assay [1] is recorded as below 5. Besides, the EC50 in the assay filed under Cavia porcellus was 50.1 µM.

On to `COC(=O)C1=C(C)N=C(C)/C(=C(\O)OC)C1c1cc([N+](=O)[O-])ccc1O` (stereo not drawn), for which, in the assay listed under Cavia porcellus, the EC50 is 0.1 µM.

Turning to `COC(=O)C1=C(C)N=C(C)/C(=C(\O)OC)C1c1ccc(F)cc1` (stereo not drawn), the “Log 1/IC50” value in assay [1] worked out at 7.46. Moreover, in the assay filed under Cavia porcellus, the EC50 is 0.129 µM.

Turning to `COC(=O)C1=C(C)N=C(C)/C(=C(\O)OC)C1c1cccc(O)c1` (stereo not drawn), the EC50 in the assay filed under Cavia porcellus was 1 µM.

Consider `COC(=O)C1=C(C)N=C(C)/C(=C(\O)OC)C1c1ccccc1OC` (stereo not drawn), for which, in assay [1], the “Log 1/IC50” value stood at 7.87. In addition, the EC50 in the assay listed under Cavia porcellus is 0.0575 µM.

With `COC(=O)C1=C(C)N=C(C)/C(=C(\O)OC)C1c1cccc(Br)c1` (stereo not drawn), in the assay listed under Cavia porcellus, the EC50 was 0.00129 µM.

Consider `COC(=O)C1=C(C)N=C(C)/C(=C(/O)OC)C1c1cccc(Cl)c1` (stereo not drawn), for which the “Log 1/IC50” value in assay [1] is 9.3. The EC50 in the assay filed under Cavia porcellus is 0.0158 µM.

Take `COC(=O)C1=C(C)N=C(C)/C(=C(\O)OC)C1c1cccc(C(F)(F)F)c1` (stereo not drawn): the EC50 in the assay listed under Cavia porcellus is 0.0741 µM.

Turning to `COC(=O)C1=C(C)N=C(C)/C(=C(\O)OC)C1c1cc(OC)c(OC)cc1OC` (stereo not drawn), the EC50 in the assay filed under Cavia porcellus is 1000 µM.

For `COC(=O)C1=C(C)N=C(C)/C(=C(\O)OC)C1c1ccccc1F` (stereo not drawn), the “Log 1/IC50” value in assay [1] is 8.44. Also, the EC50 in the assay filed under Cavia porcellus was 0.0427 µM.

As for `C=Cc1ccccc1C1C(C(=O)OC)=C(C)N=C(C)/C1=C(\O)OC` (stereo not drawn), in the assay filed under Cavia porcellus, the EC50 is 0.00447 µM.

Turning to `COC(=O)C1=C(C)N=C(C)/C(=C(\O)OC)C1c1ccc(Cl)cc1` (stereo not drawn), the “Log 1/IC50” value in assay [1] is on record as 6.22. For the same molecule, the EC50 in the assay filed under Cavia porcellus was 8.13 µM.

With `COC(=O)C1=C(C)N=C(C)/C(=C(\O)OC)C1c1cc([N+](=O)[O-])ccc1Cl` (stereo not drawn), in the assay filed under Cavia porcellus, the EC50 is 0.0302 µM.

As for `COC(=O)C1=C(C)N=C(C)/C(=C(\O)OC)C1c1ccc(C#N)cc1` (stereo not drawn), the EC50 in the assay listed under Cavia porcellus was 3.47 µM.

Take `CCc1ccccc1C1C(C(=O)OC)=C(C)N=C(C)/C1=C(\O)OC` (stereo not drawn): in the assay listed under Cavia porcellus, the EC50 is 0.00646 µM.

On to `COC(=O)C1=C(C)N=C(C)/C(=C(\O)OC)C1c1cccc(OC(C)=O)c1` (stereo not drawn), for which, in the assay listed under Cavia porcellus, the EC50 was 6.03 µM.

`COC(=O)C1=C(C)N=C(C)/C(=C(\O)OC)C1c1ccc(I)cc1` (stereo not drawn): the EC50 in the assay filed under Cavia porcellus is 22.9 µM.

With `COC(=O)C1=C(C)N=C(C)/C(=C(\O)OC)C1c1cccc(N=[N+]=[N-])c1` (stereo not drawn), the “Log 1/IC50” value in assay [1] is recorded as 8.67.

As to `COC(=O)C1=C(C)N=C(C)/C(=C(\O)OC)C1c1ccccc1C` (stereo not drawn), the “Log 1/IC50” value in assay [1] is reported as 8.71. Further, in the assay listed under Cavia porcellus, the EC50 is 0.00603 µM.

For the molecule `COC(=O)C1=C(C)N=C(C)/C(=C(\O)OC)C1c1c(Cl)cccc1Cl` (stereo not drawn), in the assay listed under Cavia porcellus, the EC50 is 0.00191 µM.

Regarding `COC(=O)C1=C(C)N=C(C)/C(=C(\O)OC)C1c1ccccc1Cl` (stereo not drawn), the “Log 1/IC50” value in assay [1] came to 9.78. The EC50 in the assay listed under Cavia porcellus was 0.00219 µM.

With `CCOc1ccccc1C1C(C(=O)OC)=C(C)N=C(C)/C1=C(\O)OC` (stereo not drawn), in the assay listed under Cavia porcellus, the EC50 was 0.11 µM.

As for `COC(=O)C1=C(C)N=C(C)/C(=C(\O)OC)C1c1cccc(N)c1` (stereo not drawn), the EC50 in the assay listed under Cavia porcellus was 2 µM.

`COC(=O)C1=C(C)N=C(C)/C(=C(\O)OC)C1c1ccccc1C(F)(F)F` (stereo not drawn): the EC50 in the assay listed under Cavia porcellus was 0.00151 µM.

With `COC(=O)C1=C(C)N=C(C)/C(=C(\O)OC)C1c1cccc(I)c1` (stereo not drawn), the EC50 in the assay filed under Cavia porcellus was 0.0417 µM.

Consider `COC(=O)C1=C(C)N=C(C)/C(=C(\O)OC)C1c1cc(C)ccc1C` (stereo not drawn), for which, in the assay filed under Cavia porcellus, the EC50 is 0.1 µM.

As for `COC(=O)C1=C(C)N=C(C)/C(=C(\O)OC)C1c1ccccc1Br` (stereo not drawn), in assay [1], the “Log 1/IC50” value came out at 10.49. Moreover, the EC50 in the assay filed under Cavia porcellus was 0.00759 µM.

With `COC(=O)C1=C(C)N=C(C)/C(=C(\O)OC)C1c1ccccc1N` (stereo not drawn), the EC50 in the assay listed under Cavia porcellus was 39.8 µM.

For `COC(=O)C1=C(C)N=C(C)/C(=C(\O)OC)C1c1cccc(Cl)c1Cl` (stereo not drawn), the EC50 in the assay filed under Cavia porcellus was 0.0191 µM.

As to `COC(=O)C1=C(C)NC(C)=C(C(=O)OC)C1c1ccccc1[N+](=O)[O-]` [NIFEDIPINE], the “Log 1/IC50” value in assay [1] is 9.08. The EC50 in the assay listed under Cavia porcellus was 0.00513 µM.
